According to PMC8236845:
Structures can show the parent of a compound that is named as a salt. Numbered stars: 1 amine (or outer) side, 2 acyl side, 3 side chain; on linkers, the order of the positions; unused ones are H or OH. Bridge positions count the residues as written; N and C are the ends. Square brackets hold non-standard residues; d marks the D form. Peptide text beside a SMILES is read from it. * marks the point of attachment. pTerphenylCO(4''-OnC5H11) = CCCCCOc1ccc(-c2ccc(-c3ccc(C(=O)*)cc3)cc2)cc1; Orn(4R-OH,5R-OH) = O=C([C@H](C[C@@H](O)[C@@H](O)N[*:3])N[*:1])[*:2]; hTyr(3S-OH,4S-OH) = N[C@H](C(=O)O)[C@H](O)[C@@H](O)c1ccc(O)cc1; Pro(3S-OH,4S-Me) = C[C@H]1CN[C@H](C(=O)O)[C@H]1O; Hyp = O=C(O)[C@@H]1C[C@@H](O)CN1

Biological target: binding of recombinant, trimeric SARS-CoV-2 spike protein to recombinant human ACE2 (Severe acute respiratory syndrome coronavirus 2, UniProt P0DTC2, K986P/R682G/R683S/R685S/V987P)
Assay: biochemical
Parameters: species or system SARS-CoV-2 / human

## CCN(CC)Cc1cc(Nc2ccnc3cc(Cl)ccc23)ccc1O [Amodiaquine hydrochloride]
  % Inhibition: 90%

## CCCCCOc1ccc(-c2ccc(-c3ccc(C(=O)N[C@H]4C[C@@H](O)[C@@H](O)NC(=O)[C@@H]5[C@@H](O)[C@@H](C)CN5C(=O)[C@H]([C@@H](C)O)NC(=O)[C@H]([C@H](O)[C@@H](O)c5ccc(O)cc5)NC(=O)[C@@H]5C[C@@H](O)CN5C(=O)[C@H]([C@@H](C)O)NC4=O)cc3)cc2)cc1 [Anidulafungin] ({pTerphenylCO(4''-OnC5H11)}-[Orn(4R-OH,5R-OH)]T[Hyp][hTyr(3S-OH,4S-OH)]T[Pro(3S-OH,4S-Me)]; lactam 1-C)
  % Inhibition: 99%

## CCOc1cc([C@@H](CS(C)(=O)=O)N2C(=O)c3cccc(NC(C)=O)c3C2=O)ccc1OC [Apremilast (CC-10004), Apremilast]
  % Inhibition: 96%

## C[C@@H](O[C@H]1OCCN(Cc2n[nH]c(=O)[nH]2)[C@H]1c1ccc(F)cc1)c1cc(C(F)(F)F)cc(C(F)(F)F)c1 [Aprepitant]
  % Inhibition: 94%

## CCOC(=O)c1c(CSc2ccccc2)n(C)c2cc(Br)c(O)c(CN(C)C)c12.Cl [Arbidol HCl]
  % Inhibition: 95%

## COc1ccc(CN=c2[nH]c(N3CCC[C@H]3CO)ncc2C(=O)NCc2ncccn2)cc1Cl [Avanafil]
  % Inhibition: 99%

## CC[C@@]1(O)C(=O)OCc2c1cc1n(c2=O)Cc2c-1nc1ccccc1c2CCNC(C)C [Belotecan]
  inhibition of spike-ACE2 binding in the screen: did not inhibit

## O=C(O)CCCC[C@@H]1SC[C@@H]2NC(=O)N[C@@H]21 [Biotin (Vitamin B7), Biotin]
  % Inhibition: 91%

## CO[C@H]1C(=O)[C@]2(C)[C@@H](OC)C[C@H]3OC[C@@]3(OC(C)=O)[C@H]2[C@H](OC(=O)c2ccccc2)[C@]2(O)C[C@H](OC(=O)[C@H](O)[C@@H](NC(=O)OC(C)(C)C)c3ccccc3)C(C)=C1C2(C)C [Cabazitaxel]
  % Inhibition: 86%

## CO/N=C(\C(=O)N[C@@H]1C(=O)N2C(C(=O)OCOC(=O)C(C)(C)C)=C(/C=C\c3scnc3C)CS[C@H]12)c1csc(N)n1 [Cefditoren Pivoxil]
  % Inhibition: 96%

## CON=C(C(=O)NC1C(=O)N2C(C(=O)OCOC(=O)C(C)(C)C)=C(C)CSC12)c1csc(N)n1 (stereo not shown) [Cefetamet Pivoxil Hydrochloride]
  % Inhibition: 94%

## Cc1ccc(-c2cc(C(F)(F)F)nn2-c2ccc(S(N)(=O)=O)cc2)cc1 [Celecoxib]
  % Inhibition: 93%
  IC50: 61.5 µM

## COc1ccc2cc1Oc1ccc(cc1)C[C@H]1c3c(cc4c(c3Oc3cc5c(cc3OC)CCN(C)[C@@H]5C2)OCO4)CCN1C [Cepharanthine]
  % Inhibition: 94%

## O=C(O)c1cn(C2CC2)c2cc(N3CCNCC3)c(F)cc2c1=O [Ciprofloxacin Hydrochloride Hydrate]
  % Inhibition: 93%

## C[C@@H](Oc1cc(-c2cnn(C3CCNCC3)c2)cnc1N)c1c(Cl)ccc(F)c1Cl [Crizotinib (PF-02341066), Crizotinib]
  % Inhibition, Screen: 55%

## CN(C)c1ccc(C(=C2C=CC(=[N+](C)C)C=C2)c2ccc(N(C)C)cc2)cc1 [Crystal Violet]
  % Inhibition: 98%

## COC(=O)N[C@H](C(=O)N1CCC[C@H]1c1nc(-c2ccc(-c3ccc(-c4c[nH]c([C@@H]5CCCN5C(=O)[C@@H](NC(=O)OC)C(C)C)n4)cc3)cc2)c[nH]1)C(C)C [Daclatasvir Dihydrochloride]
  % Inhibition: 97%

## COC(=O)N[C@H](C(=O)N1CCC[C@H]1c1nc(-c2ccc(-c3ccc(-c4c[nH]c([C@@H]5CCCN5C(=O)[C@@H](NC(=O)OC)C(C)C)n4)cc3)cc2)c[nH]1)C(C)C [Daclatasvir]
  % Inhibition: 99%

## Cc1nc(Nc2ncc(C(=O)Nc3c(C)cccc3Cl)s2)cc(N2CCN(CCO)CC2)n1.Cl [Dasatinib HCl]
  % Inhibition: 98%
read-out: EC50 (corrected)
  EC50: 65.9 µM

## CN1C[C@H](C(=O)N[C@]2(C)O[C@@]3(O)[C@@H]4CCCN4C(=O)[C@H](Cc4ccccc4)N3C2=O)C[C@@H]2c3cccc4[nH]cc(c34)C[C@H]21 [Dihydroergotamine Mesylate]
  % Inhibition: 94%
